Source: a melting point compilation (Tetko et al.)

Structure (SMILES)	melting point [°C]
Nc1ccc2nc(C3CC3)oc2c1	99 to 101
Cc1ccc(C#N)c(Br)c1	50 to 55
COc1ccc(OCc2nc(C=O)cs2)cc1	95 to 97
OCc1nnc(-c2ccccc2)n1-c1ccccc1	199 to 201
Cc1ccc(O)c(C(=O)Nc2nc(CC(=O)O)cs2)c1	271 to 273
Cc1ccc(-c2csc(S)n2)cc1	192 to 194
CCOP(=O)(Cc1cc(Cl)ccc1Cl)OCC	53 to 55
CC(C)CC(=O)NCCc1ccc(S(=O)(=O)Cl)s1	79 to 81
Cc1cccc2c(CC(=O)O)c(-c3ccccc3)[nH]c12	159 to 161
CCOC(=O)c1ccc(S(=O)(=O)N2CCC(C(=O)O)CC2)o1	170 to 172
O=C1CCNc2ccccc2N1	132 to 134
NCc1cccc(NC(=O)Cn2cccn2)c1	113 to 115
COc1ccc(C(C)=O)c(OCc2ccccc2)c1	59 to 61
Cc1cc(Cl)nnc1C	45 to 47
O=[N+]([O-])c1ccc(Cl)c(CCl)c1	61 to 63
COc1cccc(-c2nnc(N)o2)c1OC	185 to 187
NCC(=O)Nc1ccccc1-n1cncn1	118 to 120
CCOc1cc2c(cc1C=O)OC(C)C2 (configuration not stated)	74 to 78
Cc1ccc(-c2cc(N)nc(-c3ccccc3)c2)cc1	110 to 112
O=C1CN(/C=C/c2ccccc2)C(=O)N1	224 to 226
COC(=O)c1ccccc1CBr	31 to 33
Oc1ccc2c(c1)OCCCO2	97 to 99
O=S(=O)(O)c1ccc2c(c1)CCCO2	80 to 82
CC(C)c1nn(C2CCS(=O)(=O)C2)cc1C(=O)O (configuration not stated)	202 to 204

Structure (SMILES)	melting point [°C]
Nc1ncn(Cc2ccccc2)n1	130 to 132
COC(=O)c1n[nH]c(C)c1Cl	129 to 131
CC1CC(N)=NO1 (configuration not stated)	95 to 97
Nc1ccccc1C(=O)NCCCN1CCOCC1	194 to 198
O=C(NCCCCl)C1CCCC1	66 to 68
O=C(O)CNC(=O)CC12CC3CC(CC(C3)C1)C2	165 to 167
O=C1COCC(=O)N1	141 to 143
O=C(CCl)c1cc([N+](=O)[O-])c[nH]1	199 to 201
Cc1ccccc1-n1nc(C(C)(C)C)cc1N	112 to 114
Cc1c(C#N)c(NC(=O)CCl)n(Cc2ccc(F)cc2)c1C	279 to 281
CC(C)(C)Sc1ccc(C#N)nc1	60 to 62
C=C(C)CNC(=S)NN	86 to 88
CC1C=CC2C(=O)N(Cc3ccccc3)C(=O)C2C1C(=O)O (configuration not stated)	204 to 206
ClCc1coc(-c2ccccc2)n1	51 to 55
CCOc1ccccc1-c1nn(C(C)(C)C)cc1C(=O)O	207 to 209
COc1ccccc1NCCC(N)=O	94 to 96
O=C(CNC1CC1)NC1CC1	47 to 49
CC(C)(C)OC(=O)Nc1cnc(C(=O)O)cn1	261 to 263
CC(O)c1ccc(-n2cccn2)cc1 (configuration not stated)	92 to 94
CN(C)S(=O)(=O)c1ccc2oc(NN)nc2c1	218 to 220
NNC(=O)NCC(F)(F)F	68 to 70
NC(=O)Cc1noc2ccccc12	147 to 149
O=[N+]([O-])c1cc2nc(Cl)ccc2cc1F	130 to 132
O=C1C(=O)N(Cc2ncon2)c2ccc(Br)cc21	197 to 199

Structure (SMILES)	melting point [°C]
COCCn1c(C)cc(C=O)c1C	44 to 46
CC(C)CC(C)(N)C(N)=O (configuration not stated)	71 to 73
Cc1sc2ccc(Cl)cc2c1S(=O)(=O)Cl	148 to 150
O=C(O)c1cc([N+](=O)[O-])c(F)c([N+](=O)[O-])c1	237 to 239
COC(=O)C(=O)CC(=O)c1ccc(OC)cc1OC	101 to 103
Cc1ccc([N+](=O)[O-])c(C)c1S(=O)(=O)Cl	62 to 64
O=C(O)C1CCc2nncn2C1 (configuration not stated)	279 to 281
CN(CC(=O)O)C1CCCC1O (configuration not stated)	150 to 152
CN(C)c1nc2cc(C#N)ccc2o1	203 to 205
COc1cc(OC)c(NC(=O)OCC(F)(F)F)cc1Cl	87 to 89
OCCc1c[nH]nc1C(F)(F)F	90 to 92
Nc1nc(-c2cccc(Oc3ccccc3)c2)ns1	138 to 140
O=C(O)c1cnoc1C1CC1	159 to 161
O=CC1=Cc2c(ccc3ccccc23)OC1	144 to 146
Nc1nc(C2CC2)c(Cc2ccccc2Cl)s1	127 to 129
FC(F)(F)c1ccc2sc(C3CCNCC3)nc2c1	71 to 73
Cc1ccc(NC(=O)C2(CN)CCCC2)cc1C	113 to 115
Oc1cccc(-c2nccc(Cl)n2)c1	135 to 137
OCc1ncc(Br)s1	73 to 75
O=C(O)Cc1csc(-c2ccc(Cl)cc2)n1	255 to 257
CCc1cc2c(C)cc(=O)oc2cc1O	216 to 218
Cc1ccc(C(=O)N=[N+]=[N-])o1	33 to 35
Sc1nnc(NCCc2ccccc2)s1	143 to 145
Cc1cc(O)cc(C(C)C)c1	49 to 51

Structure (SMILES)	melting point [°C]
CCN1CCCC1CNC(=O)C1CCNCC1 (configuration not stated)	191 to 194
O=[N+]([O-])c1cn(Cc2ccc(F)cc2)cn1	109 to 111
NC(=O)Cn1cc([N+](=O)[O-])cn1	167 to 169
Cc1nc(N)n(-c2ccccc2)n1	131 to 133
CCCCn1c(SCC(=O)O)nc2cc(C(F)(F)F)ccc21	120 to 122
CC(=O)c1cc2c(cc1[N+](=O)[O-])OCO2	121 to 123
CC(C)NC(=O)N(C)c1ccc(O)cc1	158 to 160
CSCCC(C(=O)O)N1C(=O)C2CCCCC2C1=O (configuration not stated)	268 to 270
Cc1ccc(-n2nc(-c3ccccc3)cc2N)c(C)c1	126 to 128
CN1CC(=O)NC(=O)C1	99 to 101
O=CC1=C(Sc2ccccc2)CCCC1	42 to 44
O=C(O)C1CC(=O)N(c2ccc3c(c2)Cc2ccccc2-3)C1 (configuration not stated)	254 to 256
Cc1cc(O)cc(=O)n1CCC(=O)O	172 to 174
Nc1nc2cnc(Cl)nc2s1	209 to 211
CC(C)(C)NCCS(C)(=O)=O	39 to 41
CCN(CC)S(=O)(=O)c1cc(NC(=O)CCl)ccc1C	70 to 72
Fc1cc2ncc(Cl)nc2cc1F	91 to 93
O=C1C2C3CC4C5C3C1C5C1(OCCO1)C42 (configuration not stated)	73 to 75
O=S(=O)(Cl)/C=C/c1ccccc1	80 to 88
N#CC1=C(N)Oc2ccccc2C1	143 to 145
CN(C)C(N)=NC(=N)N	223 to 226
CN(Cc1cnn(C)c1)C(=O)CCl	35 to 37
COc1ccc(NC(=O)CCl)c([N+](=O)[O-])c1	98 to 100
O=c1[nH]nc(-c2ccccc2)cc1C(F)(F)F	184 to 186

The next lines start with the values.

melting point [°C]	Structure (SMILES)
229 to 231	Cc1ccc(S(=O)(=O)NCCCN(C)C)cc1C(=O)O
79 to 81	CCOC(=O)c1cc(Br)ccc1N
48 to 50	Fc1nc(C(F)(F)F)ccc1I
275 to 277	NS(=O)(=O)Cc1ccc(C(=O)O)cc1
90 to 92	COC(=O)c1noc(C)c1C(=O)c1ccccc1
169 to 171	NC(=S)c1ccc(Br)s1
169 to 171	CC(C)(C)OC(=O)Nc1ccc(C(=O)O)c(Cl)c1
142 to 144	O=C(O)c1occc1-c1ccccc1
38 to 40	CN1CCc2cc(C=O)ccc21
208 to 210	Cn1ccc(C(=O)N2CCCC(C(=O)O)C2)cc1=O (configuration not stated)
57 to 59	COc1ccc([N+](=O)[O-])cc1NS(=O)(=O)c1cc(C(=O)O)ccc1Cl
220 to 222	COc1ccc(C(=O)O)cc1-c1ccccc1
175 to 177	CS(=O)(=O)c1ccc(F)c(C(=O)O)c1F
243 to 245	O=C(O)c1ccc(I)c(Br)c1
295 to 297	O=C(O)c1ccc2nc(S)oc2c1
206 to 208	Cc1nn(-c2ccccc2)c(C(F)F)c1C(=O)O
161 to 163	CN(C)C(=O)c1ccccc1O
199 to 201	Nc1cc(S(N)(=O)=O)ccc1O
201 to 203	COC(=O)c1ccc(N)c([N+](=O)[O-])c1
151 to 153	COc1ccc(S(N)(=O)=O)c(OC)c1C(=O)O
163 to 165	Cc1ccc(NC(=O)N(C)C)c(C(=O)O)c1
96 to 98	CS(=O)(=O)Nc1ccccc1I
161 to 163	NNC(=O)c1ccc(F)cc1Cl

melting point [°C]	Structure (SMILES)
249 to 251	O=C(O)c1ccc(=O)n(-c2ccccc2F)c1
204 to 206	CN(c1ccccc1)S(=O)(=O)c1cc(C(=O)O)ccc1Br
198 to 200	O=C(c1ccc(CCl)cc1)N1CCCC1
217 to 219	O=C(O)c1cnc(-c2ncccn2)s1
189 to 191	Cc1nc(C(=O)O)nn1-c1ccccc1Cl
103 to 105	O=C(O)Cc1coc2cc(F)ccc12
29 to 31	COC(=O)C(=O)CC(=O)c1cccc(Cl)c1
272 to 274	O=C(Nc1ccc(C(=O)O)c(O)c1)c1ccc(Cl)c(Cl)c1
142 to 144	COc1ccc(S(=O)(=O)Cl)cc1C(=O)O
271 to 273	Cn1nnc2ccc(C(=O)O)cc21
142 to 144	CCN(CC)S(=O)(=O)c1cc(C(=O)O)ccc1C
233 to 235	COC(=O)c1cc(C(=O)O)ccn1
317 to 319	NC(=O)c1ccc(C(=O)O)s1
122 to 124	CC(C)(C)OC(=O)Nc1ccc(F)c(N)c1
94 to 96	O=S(=O)(Cl)c1csc(-c2cccc(Br)c2)n1
105 to 107	CC(C)NC(=O)c1cccc(CN)c1
167 to 169	O=C(CCl)c1ccc(N2CCOC2=O)cc1
251 to 253	O=C(O)c1cc(Br)c2c(c1)OCO2
168 to 170	O=C(O)c1cccc(-n2cnnn2)c1
199 to 201	NC(=O)c1n[nH]c2ccc(N)cc12
112 to 114	COc1ccc(Br)cc1C(=O)O
90 to 92	CC(=O)c1cccc(OCCCC(=O)O)c1
229 to 231	O=C(O)c1ccc(S(=O)(=O)NCc2ccco2)cc1
